PubChem BioAssay (NCI)
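96-well plates; 48 h exposure; 5 concentrations. Endpoints by linear interpolation between flanking doses. Not reached: highest tested concentration assigned. TGI marks complete inhibition of growth.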

Tested on: NCI-H460 lung
Assay: NCI anticancer screen, dose series, 48 h

Structure (SMILES)	TGI
O=C1OCN(c2ccccc2)C12CCN(Cc1ccccc1)CC2	54.5 µM
Cn1c2ccc([N+](=O)[O-])cc2c(=O)n1Cc1ccccc1F	> 100 µM
CN(Cc1cnc2nc(N)nc(N)c2n1)c1ccc(C(=O)NCCS(=O)(=O)O)cc1	> 100 µM
COc1cc(NC(C)c2ccc3c(c2)OCCO3)cc(OC)c1OC (configuration not stated)	> 100 µM
Cc1cccc2oc3c(CC(=O)O)cccc3c(=O)c12	> 100 µM
N#CC(C#N)=C1C(=Cc2ccc(OCCCCCCCCCCSSCCCCCCCCCCOc3ccc(C=C4C(=C(C#N)C#N)c5ccccc5C4=C(C#N)C#N)cc3)cc2)C(=C(C#N)C#N)c2ccccc21	44.7 µM
O=c1c2cccnc2n2n1Cc1ccccc1C2	> 100 µM
S=c1nc2sc3c(c2c(Nc2ccc(Cl)cc2)[nH]1)CCCC3	> 100 µM
CSC1=C(C#N)C(=S)N=C(N)C1C(=O)Nc1ccc(C)cc1 (configuration not stated)	> 100 µM
O=c1ccn([C@@H]2C[C@H]2CO)c(=O)[nH]1	> 100 µM
CSC(=N/C=C/c1ccccc1)SC	> 100 µM
c1ccc(C(C2=Nc3cccc4cccc(c34)N2)c2ccccc2)cc1	54.3 µM
COC(=O)NC(Nc1ccccn1)(C(F)(F)F)C(F)(F)F	> 100 µM
O=C(OCc1ccccc1)N(CCCCN(CCCNC(=O)C(F)(F)F)C(=O)OCc1ccccc1)CCCNC(=O)C(F)(F)F	> 100 µM
Nc1ncc(Br)c(NCC2(CO)CCC2)n1	> 100 µM
C=CCC1(O)CC(n2cc(C)c(=O)[nH]c2=O)OC1CO[Si](C)(C)C(C)(C)C (configuration not stated)	> 100 µM
NC(=O)C(=CNC(N)=S)C(N)=O	> 100 µM

Tested on: MOLT-4 leukemia
Assay: NCI anticancer screen, dose series, 48 h

Structure (SMILES)	TGI
CCCN(CCC)CCc1ccc(OC2=CCN(C)CC2)cc1	> 100 µM
O=C1OCN(c2ccccc2)C12CCN(Cc1ccccc1)CC2	36.6 µM
Cn1c2ccc([N+](=O)[O-])cc2c(=O)n1Cc1ccccc1F	> 100 µM
Cn1c(=O)c2c3ccccc3n(C)c2n(C)c1=O	> 100 µM
CN(Cc1cnc2nc(N)nc(N)c2n1)c1ccc(C(=O)NCCS(=O)(=O)O)cc1	> 100 µM
COc1cc(NC(C)c2ccc3c(c2)OCCO3)cc(OC)c1OC (configuration not stated)	> 100 µM
Cc1cccc2oc3c(CC(=O)O)cccc3c(=O)c12	> 100 µM
N#CC(C#N)=C1C(=Cc2ccc(OCCCCCCCCCCSSCCCCCCCCCCOc3ccc(C=C4C(=C(C#N)C#N)c5ccccc5C4=C(C#N)C#N)cc3)cc2)C(=C(C#N)C#N)c2ccccc21	80 µM
O=c1c2cccnc2n2n1Cc1ccccc1C2	> 100 µM
S=c1nc2sc3c(c2c(Nc2ccc(Cl)cc2)[nH]1)CCCC3	> 100 µM
CSC1=C(C#N)C(=S)N=C(N)C1C(=O)Nc1ccc(C)cc1 (configuration not stated)	> 100 µM
O=c1ccn([C@@H]2C[C@H]2CO)c(=O)[nH]1	> 100 µM
C=C(C)[C@@H]1CCC2=C[C@@H](OC2=O)[C@@H](C(=C)C)C2=CC(C(=O)O)=C(C1)O2	> 100 µM
CSC(=N/C=C/c1ccccc1)SC	> 100 µM
COC(=O)NC(Nc1ccccn1)(C(F)(F)F)C(F)(F)F	> 100 µM
O=C(OCc1ccccc1)N(CCCCN(CCCNC(=O)C(F)(F)F)C(=O)OCc1ccccc1)CCCNC(=O)C(F)(F)F	> 100 µM
Nc1ncc(Br)c(NCC2(CO)CCC2)n1	> 100 µM
C=CCC1(O)CC(n2cc(C)c(=O)[nH]c2=O)OC1CO[Si](C)(C)C(C)(C)C (configuration not stated)	> 100 µM
NC(=O)C(=CNC(N)=S)C(N)=O	> 100 µM

Tested on: NCI-H226 lung
Assay: NCI anticancer screen, dose series, 48 h

Structure (SMILES)	TGI
CCCN(CCC)CCc1ccc(OC2=CCN(C)CC2)cc1	> 100 µM
O=C1OCN(c2ccccc2)C12CCN(Cc1ccccc1)CC2	> 100 µM
Cn1c2ccc([N+](=O)[O-])cc2c(=O)n1Cc1ccccc1F	92.4 µM
Cn1c(=O)c2c3ccccc3n(C)c2n(C)c1=O	> 100 µM
CN(Cc1cnc2nc(N)nc(N)c2n1)c1ccc(C(=O)NCCS(=O)(=O)O)cc1	> 100 µM
COc1cc(NC(C)c2ccc3c(c2)OCCO3)cc(OC)c1OC (configuration not stated)	75.6 µM
Cc1cccc2oc3c(CC(=O)O)cccc3c(=O)c12	> 100 µM
N#CC(C#N)=C1C(=Cc2ccc(OCCCCCCCCCCSSCCCCCCCCCCOc3ccc(C=C4C(=C(C#N)C#N)c5ccccc5C4=C(C#N)C#N)cc3)cc2)C(=C(C#N)C#N)c2ccccc21	63.6 µM
O=c1c2cccnc2n2n1Cc1ccccc1C2	> 100 µM
S=c1nc2sc3c(c2c(Nc2ccc(Cl)cc2)[nH]1)CCCC3	> 100 µM
CSC1=C(C#N)C(=S)N=C(N)C1C(=O)Nc1ccc(C)cc1 (configuration not stated)	> 100 µM
O=c1ccn([C@@H]2C[C@H]2CO)c(=O)[nH]1	> 100 µM
C=C(C)[C@@H]1CCC2=C[C@@H](OC2=O)[C@@H](C(=C)C)C2=CC(C(=O)O)=C(C1)O2	> 100 µM
CSC(=N/C=C/c1ccccc1)SC	> 100 µM
c1ccc(C(C2=Nc3cccc4cccc(c34)N2)c2ccccc2)cc1	84.7 µM
COC(=O)NC(Nc1ccccn1)(C(F)(F)F)C(F)(F)F	> 100 µM
O=C(OCc1ccccc1)N(CCCCN(CCCNC(=O)C(F)(F)F)C(=O)OCc1ccccc1)CCCNC(=O)C(F)(F)F	> 100 µM
Nc1ncc(Br)c(NCC2(CO)CCC2)n1	> 100 µM
C=CCC1(O)CC(n2cc(C)c(=O)[nH]c2=O)OC1CO[Si](C)(C)C(C)(C)C (configuration not stated)	> 100 µM
NC(=O)C(=CNC(N)=S)C(N)=O	> 100 µM

Tested on: HCT-15 colon
Assay: NCI anticancer screen, dose series, 48 h

Structure (SMILES)	TGI
CCCN(CCC)CCc1ccc(OC2=CCN(C)CC2)cc1	> 100 µM
O=C1OCN(c2ccccc2)C12CCN(Cc1ccccc1)CC2	94.6 µM
Cn1c2ccc([N+](=O)[O-])cc2c(=O)n1Cc1ccccc1F	> 100 µM
Cn1c(=O)c2c3ccccc3n(C)c2n(C)c1=O	> 100 µM
CN(Cc1cnc2nc(N)nc(N)c2n1)c1ccc(C(=O)NCCS(=O)(=O)O)cc1	> 100 µM
COc1cc(NC(C)c2ccc3c(c2)OCCO3)cc(OC)c1OC (configuration not stated)	> 100 µM
Cc1cccc2oc3c(CC(=O)O)cccc3c(=O)c12	> 100 µM
N#CC(C#N)=C1C(=Cc2ccc(OCCCCCCCCCCSSCCCCCCCCCCOc3ccc(C=C4C(=C(C#N)C#N)c5ccccc5C4=C(C#N)C#N)cc3)cc2)C(=C(C#N)C#N)c2ccccc21	31.6 µM
O=c1c2cccnc2n2n1Cc1ccccc1C2	> 100 µM
S=c1nc2sc3c(c2c(Nc2ccc(Cl)cc2)[nH]1)CCCC3	> 100 µM
CSC1=C(C#N)C(=S)N=C(N)C1C(=O)Nc1ccc(C)cc1 (configuration not stated)	> 100 µM
O=c1ccn([C@@H]2C[C@H]2CO)c(=O)[nH]1	> 100 µM
C=C(C)[C@@H]1CCC2=C[C@@H](OC2=O)[C@@H](C(=C)C)C2=CC(C(=O)O)=C(C1)O2	> 100 µM
CSC(=N/C=C/c1ccccc1)SC	> 100 µM
c1ccc(C(C2=Nc3cccc4cccc(c34)N2)c2ccccc2)cc1	93.6 µM
COC(=O)NC(Nc1ccccn1)(C(F)(F)F)C(F)(F)F	> 100 µM
O=C(OCc1ccccc1)N(CCCCN(CCCNC(=O)C(F)(F)F)C(=O)OCc1ccccc1)CCCNC(=O)C(F)(F)F	> 100 µM
Nc1ncc(Br)c(NCC2(CO)CCC2)n1	> 100 µM
C=CCC1(O)CC(n2cc(C)c(=O)[nH]c2=O)OC1CO[Si](C)(C)C(C)(C)C (configuration not stated)	> 100 µM
NC(=O)C(=CNC(N)=S)C(N)=O	> 100 µM

Tested on: SK-OV-3 ovarian
Assay: NCI anticancer screen, dose series, 48 h

Structure (SMILES)	TGI
CCCN(CCC)CCc1ccc(OC2=CCN(C)CC2)cc1	> 100 µM
O=C1OCN(c2ccccc2)C12CCN(Cc1ccccc1)CC2	> 100 µM
Cn1c2ccc([N+](=O)[O-])cc2c(=O)n1Cc1ccccc1F	> 100 µM
Cn1c(=O)c2c3ccccc3n(C)c2n(C)c1=O	83.9 µM
CN(Cc1cnc2nc(N)nc(N)c2n1)c1ccc(C(=O)NCCS(=O)(=O)O)cc1	> 100 µM
O=c1c2cccnc2n2n1Cc1ccccc1C2	> 100 µM
S=c1nc2sc3c(c2c(Nc2ccc(Cl)cc2)[nH]1)CCCC3	> 100 µM
CSC1=C(C#N)C(=S)N=C(N)C1C(=O)Nc1ccc(C)cc1 (configuration not stated)	> 100 µM
C=C(C)[C@@H]1CCC2=C[C@@H](OC2=O)[C@@H](C(=C)C)C2=CC(C(=O)O)=C(C1)O2	> 100 µM
CSC(=N/C=C/c1ccccc1)SC	> 100 µM
c1ccc(C(C2=Nc3cccc4cccc(c34)N2)c2ccccc2)cc1	51.8 µM
COC(=O)NC(Nc1ccccn1)(C(F)(F)F)C(F)(F)F	> 100 µM
O=C(OCc1ccccc1)N(CCCCN(CCCNC(=O)C(F)(F)F)C(=O)OCc1ccccc1)CCCNC(=O)C(F)(F)F	> 100 µM
NC(=O)C(=CNC(N)=S)C(N)=O	> 100 µM

Tested on: MDA-MB-435
Assay: NCI anticancer screen, dose series, 48 h

Structure (SMILES)	TGI
CCCN(CCC)CCc1ccc(OC2=CCN(C)CC2)cc1	> 100 µM
O=C1OCN(c2ccccc2)C12CCN(Cc1ccccc1)CC2	31.2 µM
